Results on two molecules are retold here after PMC12189671, “Antioxidant Activity and Cytotoxicity Evaluation of New Catechol Hydrazinyl-Thiazole Derivatives as Potential Protectors in Retinal Degenerative Processes” (Antioxidants, 2025).

Data set [1] in a line: Cell viability (resazurin) on BJ. In kind it is cell-based. As to conditions: human, BJ cells; for IC50 at 24 h: read-out: 24 h Exposure IC50 (cytotoxicity); for IC50 at 48 h: read-out: 48 h Exposure IC50 (cytotoxicity). An excerpt:
(§1) The ARPE-19 cell line was purchased from CLS Cell Lines Service GmbH (Eppelheim, Germany) and cultured in Dulbecco’s modified Eagle’s medium/F-12 (HAM) 1:1 (Biological Industries, Beit, Israel). The medium was supplemented with 10% fetal bovine serum (FBS) (Thermo Fisher Scientific, Waltham, MA, USA) and 1% penicillin-streptomycin (Biosera, Cholet, France). The cancerous cell line A549 was purchased from ATCC (Manassas, VA, USA) and cultivated in high-glucose Dulbecco’s modified Eagle’s medium (DMEM 4.5 g/L). The normal BJ cell line was also purchased from ATCC (Manassas, VA, USA) and was cultivated in low-glucose Dulbecco’s modified Eagle’s medium (DMEM 1 g/L). The media was supplemented in both cases with 10% FBS. Cells were cultured in T75 flasks and incubated at 37 °C in a humidified incubator with 5% CO2 supplementation. For maintenance, the media was changed every 2–3 days, and when the confluence of the flask reached approximately 85%, the cells were either subcultured or further used in the experiments.
(§2) ARPE-19 cells were seeded at a density of 2 × 10^4 cells/well and 1 × 10^4 cells/well (suspended in 100 µL) in 96-well plates for 24 h and 48 h, respectively. For the BJ cells, the seeding density was 0.5 × 10^4 cells/well and 0.3 × 10^4 cells/well for 24 h and 48 h, respectively, and for the A549 cells, 1.5 × 10^4 cells/well for 24 h and 0.75 × 10^4 cells/well for 48 h. As cells have different sizes and volumes, the different seeding densities were selected to reach a confluency of 80–90% by the end of the experiments. Cells were further exposed to the synthesized compounds for 24/48 h at concentrations ranging from 12.5 to 500 µM. After the incubation period, the exposure media was removed, the cells were washed with PBS, and further incubated with a 200 µM resazurin solution for 3 h as described in our previous report. The conversion of resazurin to the fluorescent resorufin compound by viable cells was measured at λexcitation = 550; λemission = 600, using SpectraMax iD3 (Molecular Devices, San Jose, CA, USA). The experiments were conducted in biological triplicate, each with a minimum of 3 technical replicates. The measured viability was expressed as relative values to the control (cells exposed only to the vehicle–culture medium containing 0.4% DMSO).
A general note: The colour change of resazurin is a common sign of viable cells or microbes.

Data set [2] can be described thus: Cell viability (resazurin) on A549. In kind it is cell-based. As to conditions: human, A549 cells; for IC50 at 24 h: A549, 24 h, read-out: 24 h Exposure IC50 (cytotoxicity); for IC50 at 48 h: A549, 48 h, read-out: 48 h Exposure IC50 (cytotoxicity).
Text: as §1, §2

The test system of data set [3] is rat microsomal membrane lipid peroxidation. As to the kind of experiment: Lipid peroxidation inhibition assay (LPI), 2-thiobarbituric acid method. In kind it is biochemical. As to conditions: for IC50: ascorbic acid/Fe^2+ system, 37 °C, 45 min. Here is the method:
Rat liver microsomes were homogenized in saline, and the resulting homogenates were centrifuged at 9000× g for 20 min at 4 °C to remove cell debris. The supernatant underwent ultracentrifugation at 110,000× g for 40 min at 4 °C. The pelleted microsomal fraction was subsequently washed with saline via another round of ultracentrifugation under identical conditions. Thereafter, the pellet was resuspended in Tris-HCl buffer (pH 7.4) to achieve a concentration equivalent to 0.5 g liver per mL and was stored until further analysis (at −80 °C). For the assay, the microsomal preparation was thermally inactivated by incubation at 90 °C for 90 s, then homogenized again and diluted to a final concentration equivalent to 4 mM fatty acid equivalents. […] All mixtures were incubated at 37 °C under air with continuous shaking. […] This was followed by heating at 90 °C for 20 min and centrifugation at 3000 rpm for 15 min. As a result of the breakdown of unsaturated fatty acids, malondialdehyde reacts with the 2-thiobarbituric acid to produce a pink compound due to the formation of a Schiff base. The extent of lipid peroxidation was measured spectrophotometrically at 535/600 nm, which is proportional to the amount of the chromogen reaction product formed between 2-thiobarbituric acid and malondialdehyde. The determinations were performed in triplicate, and the standard deviation was within ±10% of the mean value.

The nature of data set [4]: Ferric Reducing Antioxidant Potential (FRAP) assay. The following applies: molar equivalents of reference compound. An excerpt: The results of the evaluation of the electron ability transfer of the tested compound were expressed as molar equivalents of the reference compound per one mol of the tested compound using the formula: % of control activity=sample absorbance/reference absorbance×100 The Ferric Reducing Antioxidant Potential (FRAP) assay measures the ability of an antioxidant to transfer an electron to Fe^3+, converting it to Fe^2+. […] The solutions were thoroughly mixed in the dark, and their absorbance was measured spectrophotometrically at λ = 593 nm.

A short description of data set [5]: ABTS radical cation decolorization assay. The following applies: 10 min incubation, pH 7.4, λ = 734 nm. Here is the method:
The ABTS^•+ (2,2′-azinobis-(3-ethylbenzothiazoline-6-sulfonic acid) decolorization assay, based on the method of Re et al., was performed in the concentration range of 1 to 25 µM according to protocols previously reported by our group. The reagent was prepared in a 0.1 M potassium phosphate buffer (pH 7.4) and activated overnight with MnO2 [89]. Prior to use, the stability of the ABTS^•+ reagent was verified by checking its absorbance at λ = 734 nm over one hour, ensuring a consistent absorption of around 0.7. The mixtures were incubated for 10 min in the dark at room temperature. The absorbance of the samples is given by the remaining unreacted reagent radical, and it is inversely proportional to the amount of ABTS^•+ neutralized. The ABTS^•+ scavenging activity of compounds was calculated using Equation (2).(2) ABTS^•^+ scavenging (%)=control absorbance−sample absorbance/control absorbance×100

The term IC50 denotes the midpoint of a concentration-inhibition curve. For `CC1=C(/C=C/C(C)=N/Nc2nc(-c3ccc(O)c(O)c3)cs2)C(C)(C)CCC1.Cl` [Compound 5b, 4-(2-(2-((2E,3E)-4-(2,6,6-trimethylcyclohex-1-en-1-yl)but-3-en-2-ylidene) hydrazineyl)thiazol-4-yl)benzene-1,2-diol hydrochloride], the IC50 at 24 h in data set [1] was found to be 141 µM; in data set [2], 167 µM. The IC50 at 48 h in data set [1] stood at 152 µM; in data set [2] it was 39.6 µM. Also, the IC50 in data set [3] is 12.9 µM; in data set [5], 5.03 µM. The “FRAP Eq Trolox” value in data set [4] worked out at 1.39 Eq Trolox.
For the molecule `C/C=C/C=N/Nc1nc(-c2ccc(O)c(O)c2)cs1.Cl` [Compound 5a, 4-(2-(2-((1E,2E)-but-2-en-1-ylidene)hydrazineyl)thiazol-4-yl)benzene-1,2-diol hydrochloride], the IC50 at 24 h in data set [1] stood at 144 µM; in data set [2] it was 147 µM. Besides, the values for the IC50 at 48 h in data set [1] and in data set [2] were 162 µM and 109 µM, respectively. Besides, the “fold more active than Trolox in lipid peroxidation inhibition” value in data set [3] is recorded as “approximately 7.5 fold”. The IC50 in data set [3] worked out at 3.34 µM; in data set [5], 4.67 µM. In addition, the “FRAP Eq Trolox” value in data set [4] was found to be 1.49 Eq Trolox.
